Patent publication US7988972B2, “Immunoreactive peptides from Epstein-Barr virus” (Ortho-Clinical Diagnostics, Inc., priority 1993, dated 2011)

Experiments:
[1] = tested on: antibodies to peptides 50.10 (EA-D) and 17.1 (EA-R) in sequential sera; test: IgG ELISA on sequential sera of a patient with acute infectious mononucleosis; assay type: binding, human; conditions: sera at 1.20 dilution, (+) >0.25
Description: The early antigen D-R transition was followed in a patient during a course of acute infectious mononucleosis. Antibodies to peptides 50.10 (EA-D) and 17.1 (EA-R) were detected by ELISAs on specimens collected over a six month duration. […] Therefore, the peptides of the invention are useful for monitoring the course of EBV-associated disease in a patient.

[2] = tested on: EA reactive antibody (IgG) in infectious mononucleosis (IM) sera; test: ELISA, EA peptides with EBV infectious mononucleosis sera; assay type: binding, human; conditions: for ELISA result, peptides with and without extensions: EA positive EBV IM acute serum; for O.D.: 420 nm; for 50.1 ELISA (OD reading): IFA EA <10, OD >0.2 positive
Experimental: ELISA. The ELISA for measuring specific antibodies to p17, p50 or to the synthetic peptides was performed as previously described in detail (Luka et al., J. Immunol. Methods, 67:145-156, 1984). Aliquots of different antigen concentrations were diluted in 0.5M Na2CO3 buffer, pH 9.5, added to wells in polystyrene microtiter plates (Linbro) and the plates incubated overnight at 4° C. Following this incubation period, the plates were washed 5× with Tris-HCl, pH 7.4, containing 0.05% Tween 20, 50 mM NaCl and 100 mg per liter albumin (Sigma) and dried for 20 minutes at room temperature. The plates were screened with different anti-EA-R or EA-D antibody positive human sera and the monoclonal antibody to p17 or p50 to identify the optimal concentration of antigen to be used in the serological studies. Alkaline-phosphatase-labelled goat anti-human IgG (Sigma) or goat anti-mouse IgG (Sigma) was used as the indicator system.
For the testing of human sera for antibodies to native p17, p50 or to the synthetic peptides, sera were diluted 1:10 in ELISA buffer, added in 0.1 ml volumes to wells coated with optimal concentrations of antigen and the plates were incubated for 60 minutes at room temperature. After 4 washes with ELISA buffer, 100 μl of alkaline phosphatase-labelled goat anti-human IgG in ELISA buffer were added to each well and the plates were incubated at room temperature for 1 hour. Following four more washes in buffer, the enzyme reaction was performed by dissolving 1 mg per ml of Sigma alkaline phosphatase substrate in 1M diethanolamine buffer, pH 10.4, containing 1 mM MgCl2 and 0.1 mM ZnCl2, and 100 μl of the mixture was then added to each well. The reaction was allowed to proceed for 30 minutes at 37° C. and then the plates were screened directly with a microplate reader, TITERTEK MULTISKAN MC (Flow), at 420 nm. Readings above 0.1 which was 2× the background noted with antibody-negative sera were considered positive reactions.
When the entire 50.10 peptide was tested with 1M sera, 24/32 or 75% of the sera contained EA-D reactive antibody (IgG) (Table 4).
Serological reactivity of EA peptides p17.1 and p50.1 which contained additional amino acids on their amino and carboxy termini was tested on EBV IM acute sera which was EA positive. The ELISA results shown in Table 5 indicate that the additional amino acids improved reactivity for both EA peptides.
Immunofluorescence assays (IFA) were performed as described by Henle, et al. (Int. J. Cancer, 8:272-282, 1971). Western blot analysis was done by methods commonly used in the art (See for example, Coligan, et al., Current Protocols in Immunology, Wiley Interscience, 1991, Unit 12). Samples of EBV-infected cell lysates (P3HR-1) were tested with human whole antiserum from positive humans (Pearson, et al., Virology, 160:151-161, 1987). A comparison was made between EA serology by IFA, using the EA-D 50.1 peptide antisera, and ELISA serology using 50.1 peptide (see Example 2).

[3] = 32 IM sera, values >0.5 positive (O.D. 420 nm)

## KQKHPKKVKQAFNPL [p50.10, synthetic peptide from 50 Kd early antigen (EA-D) region of EBV]
[1]; serum no. 9817, May 26, 1988
  IgG ELISA O.D. reading: 0.104
[1]; serum no. 9820, May 31, 1988
  IgG ELISA O.D. reading: 0.094
[1]; serum no. 9829, Jun. 07, 1988
  IgG ELISA O.D. reading: 0.120
[1]; serum no. 9941, Jun. 20, 1988
  IgG ELISA O.D. reading: 0.147
[1]; serum no. 9983, Jun. 27, 1988
  IgG ELISA O.D. reading: 0.817
[1]; serum no. 10064, Jul. 18, 1988
  IgG ELISA O.D. reading: 0.821
[1]; serum no. 10237, Aug. 29, 1988
  IgG ELISA O.D. reading: 0.561
[1]; serum no. 10271, Sep. 20, 1988
  IgG ELISA O.D. reading: 0.100
[1]; serum no. 10488, Oct. 21, 1988
  IgG ELISA O.D. reading: 0.095
[1]; serum no. 10546, Nov. 15, 1988
  IgG ELISA O.D. reading: 0.140
[2]; [3]
  % Positive: 75%
  IM sera positive / tested: 24/32
[2]; sample no. 2241
  ELISA result, peptides with and without extensions: 0.673
[2]; sample no. 12498
  ELISA result, peptides with and without extensions: 0.342
[2]; sample no. 12836
  ELISA result, peptides with and without extensions: 0.722
[2]; IM serum sample no. 2241
  SCORE: + (Values >0.5 were considered positive (O.D. readings at 420 nm).)
[2]; IM serum sample no. 11984
  SCORE: + (Values >0.5 were considered positive (O.D. readings at 420 nm).)
  O.D.: 0.722
[2]; IM serum sample no. 12005
  SCORE: − (Values >0.5 were considered positive (O.D. readings at 420 nm).)
  O.D.: 0.441
[2]; IM serum sample no. 12288
  SCORE: + (Values >0.5 were considered positive (O.D. readings at 420 nm).)
  O.D.: 0.610
[2]; IM serum sample no. 12407
  SCORE: + (Values >0.5 were considered positive (O.D. readings at 420 nm).)
  O.D.: 0.751
[2]; IM serum sample no. 12409
  SCORE: + (Values >0.5 were considered positive (O.D. readings at 420 nm).)
  O.D.: 0.609
[2]; IM serum sample no. 12418
  SCORE: − (Values >0.5 were considered positive (O.D. readings at 420 nm).)
  O.D.: 0.382
[2]; IM serum sample no. 12498
  SCORE: − (Values >0.5 were considered positive (O.D. readings at 420 nm).)
[2]; IM serum sample no. 12502
  SCORE: − (Values >0.5 were considered positive (O.D. readings at 420 nm).)
  O.D.: 0.270
[2]; IM serum sample no. 12587
  SCORE: + (Values >0.5 were considered positive (O.D. readings at 420 nm).)
  O.D.: 0.890
[2]; IM serum sample no. 12600
  SCORE: − (Values >0.5 were considered positive (O.D. readings at 420 nm).)
  O.D.: 0.323
[2]; IM serum sample no. 12611
  SCORE: − (Values >0.5 were considered positive (O.D. readings at 420 nm).)
  O.D.: 0.436
[2]; IM serum sample no. 12801
  SCORE: + (Values >0.5 were considered positive (O.D. readings at 420 nm).)
  O.D.: 0.605
[2]; IM serum sample no. 12828
  SCORE: + (Values >0.5 were considered positive (O.D. readings at 420 nm).)
  O.D.: 0.895
[2]; IM serum sample no. 12829
  SCORE: + (Values >0.5 were considered positive (O.D. readings at 420 nm).)
  O.D.: 0.652
[2]; IM serum sample no. 12836
  SCORE: + (Values >0.5 were considered positive (O.D. readings at 420 nm).)
[2]; IM serum sample no. 12837
  SCORE: + (Values >0.5 were considered positive (O.D. readings at 420 nm).)
  O.D.: 1.491
[2]; IM serum sample no. 12840
  SCORE: + (Values >0.5 were considered positive (O.D. readings at 420 nm).)
  O.D.: 0.723
[2]; IM serum sample no. 12888
  SCORE: + (Values >0.5 were considered positive (O.D. readings at 420 nm).)
  O.D.: 0.847
[2]; IM serum sample no. 12889
  SCORE: + (Values >0.5 were considered positive (O.D. readings at 420 nm).)
  O.D.: 1.184
[2]; IM serum sample no. 12892
  SCORE: + (Values >0.5 were considered positive (O.D. readings at 420 nm).)
  O.D.: 0.634
[2]; IM serum sample no. 12893
  SCORE: + (Values >0.5 were considered positive (O.D. readings at 420 nm).)
  O.D.: 0.626
[2]; IM serum sample no. 12899
  SCORE: + (Values >0.5 were considered positive (O.D. readings at 420 nm).)
  O.D.: 0.895
[2]; IM serum sample no. 12900
  SCORE: − (Values >0.5 were considered positive (O.D. readings at 420 nm).)
  O.D.: 0.498
[2]; IM serum sample no. 13075
  SCORE: − (Values >0.5 were considered positive (O.D. readings at 420 nm).)
  O.D.: 0.252
[2]; IM serum sample no. 13419
  SCORE: + (Values >0.5 were considered positive (O.D. readings at 420 nm).)
  O.D.: 0.678
[2]; IM serum sample no. 13637
  SCORE: + (Values >0.5 were considered positive (O.D. readings at 420 nm).)
  O.D.: 0.886
[2]; IM serum sample no. 13769
  SCORE: + (Values >0.5 were considered positive (O.D. readings at 420 nm).)
  O.D.: 1.307
[2]; IM serum sample no. 13929
  SCORE: + (Values >0.5 were considered positive (O.D. readings at 420 nm).)
  O.D.: 1.031
[2]; IM serum sample no. 14043
  SCORE: + (Values >0.5 were considered positive (O.D. readings at 420 nm).)
  O.D.: 0.631
[2]; IM serum sample no. 14128
  SCORE: + (Values >0.5 were considered positive (O.D. readings at 420 nm).)
  O.D.: 0.693
[2]; IM serum sample no. 14131
  SCORE: + (Values >0.5 were considered positive (O.D. readings at 420 nm).)
  O.D.: 0.530
[2]; acute EBV IM sample 12502, diluted 1:10, EA-D Western blot positive
  50.1 ELISA (OD reading): 0.409
[2]; acute EBV IM sample 12840, diluted 1:10, EA-D Western blot positive
  50.1 ELISA (OD reading): 0.257
[2]; acute EBV IM sample 13769, diluted 1:10, EA-D Western blot positive
  50.1 ELISA (OD reading): 1.034
